{
  "source": "patent US20150259331A1",
  "about": "“PROTOZOAN PARASITE GROWTH INHIBITORS” (Northeastern University, priority 2014, published 2015)",
  "key": {"[1]": {"tested_on": "endocytosis of transferrin", "assay": "Receptor-mediated endocytosis of transferrin in the trypanosome", "type": "cell-based, T. brucei"}, "[2]": {"assay": "Protein binding (Table 14)", "settings": "plasma"}, "P. falciparum D6": {"tested_on": "P. falciparum D6", "assay": "P. falciparum D6 assay", "type": "cell-based", "settings": "Plasmodium falciparum; strain D6"}, "[3]": {"settings": "male"}, "in vitro": {"assay": "in vitro", "settings": "for fraction unbound at 4 h, 5 μM: mice plasma", "procedure": "Mice plasma (BALB/c mice, male—pool of 3 animals) was collected in-house using K2EDTA as anticoagulant. […] Glipizide (Cat #50402G) was purchased from Apin chemicals, Abingdon, Oxon. Albendazole (Cat #A4673) was purchased from Sigma. Phosphate buffered saline pH 7.4 (0.1 M sodium phosphate and 0.15 M sodium chloride) and RED device inserts were procured from Thermo Scientific, Meridian Rd., Rockford, Ill.\nFurther 1 mM stock was diluted 200-fold in mice plasma to prepare a concentration of 5 μM. The final DMSO concentration in plasma was 0.5%.\nRapid equilibrium dialysis was performed with a rapid equilibrium dialysis (RED) device containing dialysis membrane with a molecular weight cut-off of 8,000 Daltons. Each dialysis insert contains two chambers. The red chamber is for plasma while the white chamber is for buffer. A 200 μL aliquot of warfarin or test compound at 5 μM (triplicates) was separately added to the plasma chamber and 350 μL of phosphate buffer saline (pH 7.4) was added to the buffer chamber of the inserts. After sealing the RED device with an adhesive film, dialysis was performed at 37° C. with shaking at 100 rpm for 4 hours as per manufacturer's recommendation.\nRecovery and stability: A 50 μL aliquot of warfarin or test compound was added to four 0.5 mL microfuse tubes. Two aliquots were frozen immediately (0 minute sample). The other two aliquots were incubated at 37° C. for 4 hours along with the RED device.\nFollowing dialysis, an aliquot of 50 μL was removed from each well (both plasma and buffer side) and diluted with equal volume of opposite matrix (dialyzed with the other matrix) to nullify the matrix effect. Similarly, 50 μL of buffer was added to recovery and stability samples. An aliquot of 100 μL was submitted for LC-MS/MS analysis.\nA 25 μL aliquot of warfarin and test compounds were crashed with 100 μL of acetonitrile containing internal standard (glipizide for warfarin and test compound) and vortexed for 5 minutes. The samples were centrifuged at 15,000 rpm at 4° C. for 10 min and 100 μL of supernatant was submitted for LCMS/MS analysis. Samples were monitored for parent compound in MRM mode using LC-MS/MS."}, "[4]": {"tested_on": "T. brucei brucei Lister 427", "assay": "Trypanosome replication assay", "type": "cell-based, Trypanosoma brucei brucei", "settings": "Trypanosoma brucei"}, "T. brucei": {"tested_on": "T. brucei", "assay": "Trypanosome DNA content and organelle (cell cycle) analysis", "type": "cell-based", "text": "The kinetoplast and nucleus can be tracked by microscopy during the cell cycle, which begins with trypanosomes harboring one nucleus (1N) and one kinetoplast (1K) (i.e., 1K1N cells). A kinetoplast that is replicating its (DNA) (i.e., kDNA) and increasing the organelle's mass is observed as an elongated kinetoplast (1Ke). Fission (segregation) of 1Ke kinetoplasts into two daughter kinetoplasts (2K) inside the same cell is coincident with the nuclear S-phase and produces 2K1N trypanosomes. Mitosis then occurs, yielding trypanosomes containing two kinetoplasts and two nuclei (2K2N). Following cell division, each daughter trypanosome has a 1K1N configuration of the organelles."}, "logD": {"assay": "logD", "type": "physicochemical"}, "[5]": {"assay": "Mouse oral pharmacokinetic study", "type": "in vivo, male BALB/c mice", "procedure": "Test system. Healthy male BALB/c mice (8-12 weeks old) weighing between 20 to 35 g were procured from In vivo biosciences, Bengaluru, India. Maximum three mice were housed in each polycarbonate cage. […] The temperature and humidity were recorded by auto-controlled data logger system. Animals were provided laboratory rodent diet ([…], Bengaluru) ad libitum and were provided fresh water ad libitum (reverse osmosis water treated with UV light). Study Design. […] The dosing volume administered for was 10 mL/kg. Formulation Preparation. Formulation of NEU-617 was given orally. The strength of oral suspension formulation was 4 mg/mL. The weighed quantity (39.22 mg) of compound NEU-617 for p.o. dosing was added in a mortar. […] Sample Collection. […] The blood samples (approximately 60 μL) were collected from the retro-orbital plexus into labeled tubes, containing K2EDTA solution, as an anticoagulant. Plasma was harvested from the blood by centrifugation at 4000 rpm for 10 min at 4±2° C. and stored below -70° C. until bioanalysis. […] Following collection, the brain samples were washed by dipping in 20 mL of ice-cold phosphate buffer saline (pH 7.4), dried gently on a filter paper, weighed and placed in polypropylene tubes. Further brain samples were homogenized using ice-cold phosphate buffer saline (pH 7.4) and the total homogenate volume was thrice the brain weight. The brain samples were stored at -70° C. until bioanalysis. Data analysis. The Non-Compartmental-Analysis module in WinNonlin® (Version 5.2) was used to assess the pharmacokinetic parameters. Peak plasma concentrations (Cmax) and time for the peak plasma concentrations (Tmax) were the observed values. The areas under the concentration time curve (AUClast and AUCinf) were calculated by linear trapezoidal rule."}, "P. falciparum C235": {"tested_on": "P. falciparum C235", "assay": "P. falciparum C235 assay", "type": "cell-based", "settings": "Plasmodium falciparum; strain C235; read-out: P. falciparum C235 (EC50)"}, "P. falciparum W2": {"tested_on": "P. falciparum W2", "assay": "P. falciparum W2 assay", "type": "cell-based", "settings": "Plasmodium falciparum; strain W2; read-out: P. falciparum W2 (EC50)"}, "L. major promastigote": {"tested_on": "L. major promastigote", "assay": "L. major promastigote assay", "type": "cell-based", "settings": "Leishmania major"}, "[6]": {"settings": "male, BALB/c, mouse, brain, 40 mg/kg PO single dose"}, "[7]": {"settings": "male, BALB/c, mouse, plasma, 40 mg/kg PO single dose"}},
  "note": "Like-named read-outs stand apart in the source and are kept apart here.",
  "data": [
    {"compound": "Fc1cccc(COc2ccc(Nc3ncnc4ccc(-c5cccc(N6CCOCC6)c5)cc34)cc2Cl)c1", "note": "[Compound 23a, N-(3-Chloro-4-((3-fluorobenzyl)oxy)phenyl)-6-(3-morpholinophenyl)quinazolin-4-amine]", "values": [
      {"measurement": "effect on endocytosis of transferrin", "setting": "[1]", "result": "no effect"},
      {"measurement": "fraction unbound", "setting": "[2]", "result": "< 0.01"},
      {"measurement": "EC50", "setting": "P. falciparum D6", "result": 230, "unit": "nM"},
      {"measurement": "Male rat hepatocytes median CLint", "setting": "[3]", "result": 44.5, "unit": "μl/min/1E6 cells"},
      {"measurement": "recovery at 4 h, 5 μM", "setting": "in vitro; male, BALB/c, mouse, pH 7.4", "result": 100, "unit": "%"},
      {"measurement": "% Bound Mean (SD)", "setting": "in vitro; male, BALB/c, mouse, plasma, pH 7.4", "result": 99.6, "unit": "%"},
      {"measurement": "fraction unbound at 4 h, 5 μM", "setting": "in vitro; male, BALB/c, mouse, plasma, pH 7.4, % Bound R1, replicate 1, 37° C.", "result": 0.005},
      {"measurement": "fraction unbound at 4 h, 5 μM", "setting": "in vitro; male, BALB/c, mouse, plasma, pH 7.4, % Bound R2, replicate 2, 37° C.", "result": 0.003},
      {"measurement": "% compound remaining at 4 h", "setting": "in vitro; plasma stability, 37° C.", "result": 85, "unit": "%"},
      {"measurement": "EC50", "setting": "[4]; 48 h, concentration giving 50% inhibition of growth of T brucei brucei Lister 427 cells, 48 h, values ±7%, read-out: Tbb EC50", "result": 42, "unit": "nM"},
      {"measurement": "EC50", "setting": "[4]; read-out: EC50 expressed as ng/mL, T. brucei EC50 converted, FIG. 1 legend", "result": 22.7, "unit": "ng/mL"},
      {"measurement": "effect on kinetoplast, nucleus and cytokinesis (single cell microscopy)", "setting": "T. brucei", "result": "blocks duplication of the kinetoplast and arrests cytokinesis without inhibiting division of the trypanosome nucleus"},
      {"measurement": "proportion of cells with 4C DNA", "setting": "T. brucei; 7 h incubation, 25% without drug", "result": 40, "unit": "%"},
      {"measurement": "fraction of cells with 2C-4C equivalents of DNA", "setting": "T. brucei; 7 h incubation, 40% without drug", "result": 25, "unit": "%"},
      {"measurement": "logD", "setting": "logD", "result": 3.2},
      {"measurement": "CNS fraction", "setting": "[5]; 40 mg/kg single oral dose", "result": 5, "unit": "%"},
      {"measurement": "time plasma levels were in excess of the EC50", "setting": "[5]; 40 mg/kg single oral dose", "result": "> 12", "unit": "h"},
      {"measurement": "AUC(0-t)", "setting": "[5]; [6]", "result": 92.5, "unit": "ng·h/mL"},
      {"measurement": "Cmax", "setting": "[5]; [6]", "result": 26, "unit": "ng/mL"},
      {"measurement": "Tmax", "setting": "[5]; [6]", "result": 0.5, "unit": "h"},
      {"measurement": "AUC(0-inf)", "setting": "[5]; [7]", "result": 2000, "unit": "ng·h/mL"},
      {"measurement": "AUC(0-t)", "setting": "[5]; [7]", "result": 1950, "unit": "ng·h/mL"},
      {"measurement": "Cmax", "setting": "[5]; [7]", "result": 153, "unit": "ng/mL"},
      {"measurement": "Tmax", "setting": "[5]; [7]", "result": 2, "unit": "h"},
      {"measurement": "EC50", "setting": "P. falciparum C235", "result": 370, "unit": "nM"},
      {"measurement": "EC50", "setting": "P. falciparum W2", "result": 680, "unit": "nM"},
      {"measurement": "EC50", "setting": "L. major promastigote", "result": 3000, "unit": "nM"}
    ]}
  ]
}
